Activity data for 1 molecule are collected here from ChEMBL document CHEMBL1149074, “Eusynstyelamide, a highly modified dimer peptide from the ascidian Eusynstyela misakiensis” (J Nat Prod, 1994).

SMILES strings stand for the structures.

In the test the test system is HCT-116. Briefly: Cytotoxicity against human HCT116 cells upto 100 ug/ml after 72 hrs by XTT assay. The test is classed as functional, cell-based.

For the molecule `N=C(N)NCCCCNC(=O)C(O)(O)C(c1c[nH]c2cc(Br)ccc12)C(O)(Cc1c[nH]c2cc(Br)ccc12)C(=O)NCCCCNC(=N)N` (stereo unspecified), the Activity entry is “Not toxic”.
